Measurements from ChEMBL document CHEMBL5728800, “JAK inhibitors” (2021).

How the values were obtained:
[1] = target: Tyrosine-protein kinase JAK1 (Homo sapiens, UniProt P23458); assay: (§1) JAK/TYK2 Assay: 10 mM test compound stock or 1 mM control compound stock (tofocitinib, ruxolitinib or staurosporine) in DMSO was diluted to 0.4 mM in DMSO. A 3-fold series dilution was then performed in DMSO to generate 10 different compound concentrations. The assay was carried out in 384-well white plate. 0.5 uL of 40× compound DMSO solution at different concentrations was mixed with 10 uL 2× enzyme prepared in reaction buffer (20 mM HEPES, 10 mM MgCl2, 0.01% Tween, 1 mM DTT, pH 7.5). 10 uL 2× substrate mixture prepared in reaction buffer was then added to start the reaction. A short spin was done to settle down all solutions to the bottom of the plate. Final concentrations of test compound in the reaction mixture were 10000, 3333, 1111, 370, 123, 41.2, 13.7, 4.57, 1.52and 0.51 nM. Concentrations of control compound were ten times less. Enzymatic reaction was conducted at 25° C. for 1-2 hours. 10 uL of Kinase Glo Reagents was added to stop the reaction and generate the luminescent signal which was measured using Envision. Luminescence signal was inversely related to kinase activity. […] The mixture without any compound was the positive control.
Tyrosine-protein kinase JAK1, sequence (P23458 whole entry): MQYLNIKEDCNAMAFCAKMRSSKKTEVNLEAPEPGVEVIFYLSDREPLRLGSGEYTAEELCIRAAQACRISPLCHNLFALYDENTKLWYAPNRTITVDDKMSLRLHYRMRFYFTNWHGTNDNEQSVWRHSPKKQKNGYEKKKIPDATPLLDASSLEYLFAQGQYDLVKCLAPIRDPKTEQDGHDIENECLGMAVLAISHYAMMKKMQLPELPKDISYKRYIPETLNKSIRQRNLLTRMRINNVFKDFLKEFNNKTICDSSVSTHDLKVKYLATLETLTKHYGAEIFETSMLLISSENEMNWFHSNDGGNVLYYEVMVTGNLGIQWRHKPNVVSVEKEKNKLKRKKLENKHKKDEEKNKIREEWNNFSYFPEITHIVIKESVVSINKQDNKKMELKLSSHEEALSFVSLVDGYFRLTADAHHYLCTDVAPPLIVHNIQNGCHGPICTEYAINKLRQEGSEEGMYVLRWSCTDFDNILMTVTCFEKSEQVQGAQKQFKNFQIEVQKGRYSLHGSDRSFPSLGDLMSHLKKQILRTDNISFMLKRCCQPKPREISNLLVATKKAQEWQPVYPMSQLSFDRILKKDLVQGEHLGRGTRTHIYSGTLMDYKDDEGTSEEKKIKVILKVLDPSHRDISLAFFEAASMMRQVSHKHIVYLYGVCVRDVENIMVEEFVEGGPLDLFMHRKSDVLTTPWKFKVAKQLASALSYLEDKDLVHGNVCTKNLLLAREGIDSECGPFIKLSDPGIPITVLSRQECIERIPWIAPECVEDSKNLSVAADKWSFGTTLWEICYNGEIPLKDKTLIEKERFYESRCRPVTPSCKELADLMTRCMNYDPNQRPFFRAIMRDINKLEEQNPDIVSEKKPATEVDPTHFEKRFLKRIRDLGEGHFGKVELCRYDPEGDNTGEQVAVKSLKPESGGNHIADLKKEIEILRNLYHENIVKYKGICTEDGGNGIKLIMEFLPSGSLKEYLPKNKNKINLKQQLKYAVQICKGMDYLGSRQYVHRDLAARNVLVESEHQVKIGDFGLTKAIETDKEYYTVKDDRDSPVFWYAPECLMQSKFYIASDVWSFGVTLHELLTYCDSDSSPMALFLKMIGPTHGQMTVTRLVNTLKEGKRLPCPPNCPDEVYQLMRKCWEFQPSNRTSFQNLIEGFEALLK

[2] = target: T1, Tyrosine-protein kinase JAK3 (Homo sapiens, UniProt P52333); assay: as §1
T1 sequence (P52333 whole entry): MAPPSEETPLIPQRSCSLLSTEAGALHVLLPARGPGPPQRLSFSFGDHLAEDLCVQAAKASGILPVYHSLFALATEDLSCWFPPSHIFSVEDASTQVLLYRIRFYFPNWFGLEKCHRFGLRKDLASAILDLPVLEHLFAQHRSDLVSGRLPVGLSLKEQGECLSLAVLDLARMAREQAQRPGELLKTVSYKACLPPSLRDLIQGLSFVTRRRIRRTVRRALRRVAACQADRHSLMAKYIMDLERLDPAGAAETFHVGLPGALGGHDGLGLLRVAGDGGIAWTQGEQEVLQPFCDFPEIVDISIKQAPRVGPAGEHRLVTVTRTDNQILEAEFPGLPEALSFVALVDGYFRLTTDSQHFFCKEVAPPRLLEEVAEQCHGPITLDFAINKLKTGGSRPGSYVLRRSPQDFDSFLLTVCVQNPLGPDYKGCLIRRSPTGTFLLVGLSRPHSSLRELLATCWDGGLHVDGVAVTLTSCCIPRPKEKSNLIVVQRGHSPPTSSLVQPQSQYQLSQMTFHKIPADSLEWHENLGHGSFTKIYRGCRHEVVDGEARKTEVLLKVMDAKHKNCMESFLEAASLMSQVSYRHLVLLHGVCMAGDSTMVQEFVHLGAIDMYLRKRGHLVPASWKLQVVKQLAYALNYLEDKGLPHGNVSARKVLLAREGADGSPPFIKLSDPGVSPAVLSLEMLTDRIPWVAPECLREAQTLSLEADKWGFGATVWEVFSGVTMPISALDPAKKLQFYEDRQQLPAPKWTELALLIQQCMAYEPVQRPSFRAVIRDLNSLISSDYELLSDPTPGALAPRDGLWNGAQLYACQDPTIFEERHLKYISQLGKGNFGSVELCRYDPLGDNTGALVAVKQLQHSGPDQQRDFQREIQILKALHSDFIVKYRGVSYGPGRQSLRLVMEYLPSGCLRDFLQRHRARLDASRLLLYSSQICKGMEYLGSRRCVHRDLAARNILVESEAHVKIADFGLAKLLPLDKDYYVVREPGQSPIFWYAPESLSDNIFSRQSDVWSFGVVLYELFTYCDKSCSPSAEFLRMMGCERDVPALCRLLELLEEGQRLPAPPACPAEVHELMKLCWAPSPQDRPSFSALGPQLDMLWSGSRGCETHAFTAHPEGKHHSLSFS

[3] = target: Non-receptor tyrosine-protein kinase TYK2 (Homo sapiens, UniProt P29597); assay: as §1
Non-receptor tyrosine-protein kinase TYK2, sequence (P29597 whole entry): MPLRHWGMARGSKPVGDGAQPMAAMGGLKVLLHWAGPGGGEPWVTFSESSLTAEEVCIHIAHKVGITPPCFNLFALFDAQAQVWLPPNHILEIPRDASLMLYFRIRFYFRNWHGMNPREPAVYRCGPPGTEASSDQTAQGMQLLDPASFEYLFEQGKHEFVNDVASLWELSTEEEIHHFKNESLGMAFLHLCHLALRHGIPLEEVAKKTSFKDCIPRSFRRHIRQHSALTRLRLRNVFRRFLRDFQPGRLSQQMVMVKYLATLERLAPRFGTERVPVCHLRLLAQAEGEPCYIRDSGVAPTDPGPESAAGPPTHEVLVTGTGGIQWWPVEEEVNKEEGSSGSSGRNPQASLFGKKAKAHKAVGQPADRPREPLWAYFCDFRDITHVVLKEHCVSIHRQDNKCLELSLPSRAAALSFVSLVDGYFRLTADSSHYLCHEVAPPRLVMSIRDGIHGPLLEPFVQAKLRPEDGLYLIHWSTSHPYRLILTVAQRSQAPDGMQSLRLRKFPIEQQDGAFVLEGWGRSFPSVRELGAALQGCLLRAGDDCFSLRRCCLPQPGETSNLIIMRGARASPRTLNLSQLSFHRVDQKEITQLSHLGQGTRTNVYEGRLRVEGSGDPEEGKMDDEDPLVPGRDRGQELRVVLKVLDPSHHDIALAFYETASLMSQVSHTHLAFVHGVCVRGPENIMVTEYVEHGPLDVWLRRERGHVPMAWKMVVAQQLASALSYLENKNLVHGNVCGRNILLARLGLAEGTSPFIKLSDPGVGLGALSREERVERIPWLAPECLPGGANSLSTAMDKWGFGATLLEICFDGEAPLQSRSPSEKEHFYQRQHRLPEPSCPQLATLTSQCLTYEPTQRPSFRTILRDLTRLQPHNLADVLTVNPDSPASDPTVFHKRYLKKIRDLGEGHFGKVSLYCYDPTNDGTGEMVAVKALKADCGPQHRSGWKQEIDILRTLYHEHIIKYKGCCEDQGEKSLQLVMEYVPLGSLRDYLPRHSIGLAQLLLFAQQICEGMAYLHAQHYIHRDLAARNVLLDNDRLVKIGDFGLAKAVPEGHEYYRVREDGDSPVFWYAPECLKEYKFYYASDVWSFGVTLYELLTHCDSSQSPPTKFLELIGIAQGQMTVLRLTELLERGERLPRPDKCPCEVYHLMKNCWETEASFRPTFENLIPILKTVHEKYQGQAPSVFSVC

[4] = target: Tyrosine-protein kinase JAK2 (Homo sapiens, UniProt O60674); assay: as §1, with “Final concentrations of test compound in the reaction mixture were 10000, 3333, 1111, 370, 123, 41.2, 13.7, 4.57, 1.52and 0.51 nM.” left out
Tyrosine-protein kinase JAK2, sequence (O60674 whole entry): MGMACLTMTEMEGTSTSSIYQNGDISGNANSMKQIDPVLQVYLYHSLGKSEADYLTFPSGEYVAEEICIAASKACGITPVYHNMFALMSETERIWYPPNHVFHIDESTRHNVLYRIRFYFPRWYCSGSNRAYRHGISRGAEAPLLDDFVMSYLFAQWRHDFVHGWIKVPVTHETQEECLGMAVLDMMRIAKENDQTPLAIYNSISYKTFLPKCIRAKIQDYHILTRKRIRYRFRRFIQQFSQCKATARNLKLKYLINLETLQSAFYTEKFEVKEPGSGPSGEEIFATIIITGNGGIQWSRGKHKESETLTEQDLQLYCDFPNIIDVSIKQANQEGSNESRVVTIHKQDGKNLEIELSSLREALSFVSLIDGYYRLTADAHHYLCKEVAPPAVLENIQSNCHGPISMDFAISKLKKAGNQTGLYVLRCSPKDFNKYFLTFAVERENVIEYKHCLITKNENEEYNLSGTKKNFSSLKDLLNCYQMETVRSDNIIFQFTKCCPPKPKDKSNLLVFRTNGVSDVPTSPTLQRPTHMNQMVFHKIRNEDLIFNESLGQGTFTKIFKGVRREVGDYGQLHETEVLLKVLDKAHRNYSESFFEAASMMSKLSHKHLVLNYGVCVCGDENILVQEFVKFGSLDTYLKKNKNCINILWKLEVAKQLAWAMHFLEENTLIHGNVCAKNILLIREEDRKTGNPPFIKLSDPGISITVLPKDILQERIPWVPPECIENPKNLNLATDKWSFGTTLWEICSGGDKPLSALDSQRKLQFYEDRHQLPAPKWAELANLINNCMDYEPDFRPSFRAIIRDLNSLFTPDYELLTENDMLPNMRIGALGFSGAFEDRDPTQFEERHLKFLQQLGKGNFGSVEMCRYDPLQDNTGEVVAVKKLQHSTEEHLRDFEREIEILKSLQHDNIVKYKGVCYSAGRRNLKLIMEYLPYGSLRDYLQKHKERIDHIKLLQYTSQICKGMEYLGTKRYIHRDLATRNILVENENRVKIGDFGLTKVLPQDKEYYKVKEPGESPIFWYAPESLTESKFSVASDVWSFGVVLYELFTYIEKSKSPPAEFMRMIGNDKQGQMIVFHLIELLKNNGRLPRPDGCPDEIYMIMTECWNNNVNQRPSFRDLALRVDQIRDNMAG

Measured: IC50

CC[C@H](Cn1ccc2cnc(Nc3cnn([C@@H](CCO)C(=O)O)c3)nc21)C(C)C
< 100 nM: all assays above

CCC(CC)Cn1ccc2cnc(Nc3cnn(CC(=O)OCC4OC(O)CC(O)C4O)c3)nc21 (stereo not drawn)
< 100 nM: all assays above
